# Data published in patent publication US10258603B2 (priority 2014, dated 2019).
# Target: T1, CECR2 (Homo sapiens, UniProt Q9BXF3)
# T1 construct: 424-538 was cloned, expressed, and purified to homogeneity; Flag; made in house
# Test: CECR2 TR-FRET Binding Assay
# Details: IC50 (uM)
# Text: IC50 Measurements for Inhibitors Using CECR2 TR-FRET Binding Assay
# T1 sequence (Q9BXF3 424-538 limits assumed): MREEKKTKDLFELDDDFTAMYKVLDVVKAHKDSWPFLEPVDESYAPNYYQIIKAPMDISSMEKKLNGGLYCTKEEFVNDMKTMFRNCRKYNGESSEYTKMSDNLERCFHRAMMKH
row,IC50 [µM],Structure (SMILES)
1,0.77,"CC(C)N1CCC(N(C)C(=O)c2cn(C)c(=O)c3[nH]ccc23)CC1 [Example 41, N-(1-isopropyl-4-piperidyl)-N,6-dimethyl-7-oxo-1H-pyrrolo[2,3-c]pyridine-4-carboxamide]"

# Same assay, conditions: read-out: IC50
row,Structure (SMILES),IC50 [µM]
1,"C=CCn1cc(C(=O)N2CCN(c3ccc(F)cc3)CC2C(N)=O)c2cc(C)[nH]c2c1=O (single isomer, unassigned) [Example 273, 1-(6-allyl-2-methyl-7-oxo-6,7-dihydro-1H-pyrrolo[2,3-c]pyridine-4-carbonyl)-4-(4-fluorophenyl)piperazine-2-carboxamide]",4.9
2,"C=CCn1cc(C(=O)N2CCN(c3ccc(F)cc3)CC2C(N)=O)c2cc(C)[nH]c2c1=O (single isomer, unassigned) [Example 274, 1-(6-allyl-2-methyl-7-oxo-6,7-dihydro-1H-pyrrolo[2,3-c]pyridine-4-carbonyl)-4-(4-fluorophenyl)piperazine-2-carboxamide]",0.074
3,"C=CCn1cc(C(=O)N(C)C2CCC(C)(C)c3ccccc32)c2cc(C)[nH]c2c1=O (single isomer, unassigned) [Example 279]",0.012
4,"C=CCn1cc(C(=O)N(C)C2CCC(C)(C)c3ccccc32)c2cc(C)[nH]c2c1=O (single isomer, unassigned) [Example 280]",0.049
5,"C=CCn1cc(C(=O)N(C)C2CCCc3cc(OC)ccc32)c2cc(C)[nH]c2c1=O (single isomer, unassigned) [Example 281]",0.032
6,"C=CCn1cc(C(=O)N(C)C2CCCc3cc(OC)ccc32)c2cc(C)[nH]c2c1=O (single isomer, unassigned) [Example 282]",0.067
7,"C=CCn1cc(C(=O)N(C)C2CCCc3c(F)cccc32)c2cc(C)[nH]c2c1=O (single isomer, unassigned) [Example 286]",0.041
8,"C=CCn1cc(C(=O)N(C)C2CCCc3ccc(C)cc32)c2cc(C)[nH]c2c1=O (single isomer, unassigned) [Example 287]",0.084
9,"C=CCn1cc(C(=O)N(C)C2CCCc3c(OC)cccc32)c2cc(C)[nH]c2c1=O (single isomer, unassigned) [Example 288]",0.041
10,"C=CCn1cc(C(=O)N(C)C2CCCc3c(OC)cccc32)c2cc(C)[nH]c2c1=O (single isomer, unassigned) [Example 289]",0.045
11,"C=CCn1cc(C(=O)N(C)C2CCCc3ccncc32)c2cc(C)[nH]c2c1=O (single isomer, unassigned) [Example 290]",0.05
12,"C=CCn1cc(C(=O)N(C)C2CCCc3ccncc32)c2cc(C)[nH]c2c1=O (single isomer, unassigned) [Example 291]",0.14
13,"Cn1cc(C(=O)NCCN2CCC(O)CC2)c2cc[nH]c2c1=O [Example 30, N-[2-(4-hydroxy-1-piperidyl)ethyl]-6-methyl-7-oxo-1H-pyrrolo[2,3-c]pyridine-4-carboxamide]",3.8
14,"Cn1cc(C(=O)NCCN2CCS(=O)(=O)CC2)c2cc[nH]c2c1=O [Example 37, N-[2-(1,1-dioxo-1,4-thiazinan-4-yl)ethyl]-6-methyl-7-oxo-1H-pyrrolo[2,3-c]pyridine-4-carboxamide]",3.1
15,"Cn1cc(C(=O)N2CCC(CCc3ccncc3)CC2)c2cc[nH]c2c1=O [Example 76, 6-methyl-4-[4-[2-(4-pyridyl)ethyl]piperidine-1-carbonyl]-1H-pyrrolo[2,3-c]pyridin-7-one]",0.35
16,"Cc1cccc(NC(=O)c2cn(C)c(=O)c3[nH]ccc23)c1 [Example 80, 6-methyl-N-(m-tolyl)-7-oxo-1H-pyrrolo[2,3-c]pyridine-4-carboxamide]",0.51
17,Cn1cc(C(=O)Nc2cccc(CN3CCOCC3)c2)c2cc[nH]c2c1=O [Example 113],0.31
18,"Cc1cnc(N2CCC(N(C)C(=O)c3cn(C)c(=O)c4[nH]ccc34)CC2)nc1 [Example 140, N,6-dimethyl-N-[1-(5-methylpyrimidin-2-yl)-4-piperidyl]-7-oxo-1H-pyrrolo[2,3-c]pyridine-4-carboxamide]",0.34
19,"CN(C(=O)c1cn(C)c(=O)c2[nH]ccc12)C1CCN(c2ncc(C#N)cn2)CC1 [Example 141, N-[1-(5-cyanopyrimidin-2-yl)-4-piperidyl]-N,6-dimethyl-7-oxo-1H-pyrrolo[2,3-c]pyridine-4-carboxamide]",0.39
20,"CN(C(=O)c1cn(C)c(=O)c2[nH]ccc12)C1CCN(c2nccc(C(F)(F)F)n2)CC1 [Example 142, N,6-dimethyl-7-oxo-N-[1-[4-(trifluoromethyl)pyrimidin-2-yl]-4-piperidyl]-1H-pyrrolo[2,3-c]pyridine-4-carboxamide]",0.29

# Other lines, results leading:
row,IC50 [µM],Structure (SMILES)
1,2.3,CC(C)N1CC[C@@H](NC(=O)c2cn(C)c(=O)c3[nH]ccc23)[C@H](C)C1 (relative stereo) [Example 239]
2,14,"CC(CN(C)C)NC(=O)c1cn(C)c(=O)c2[nH]ccc12 (centres unmarked) [Example 2, N-[2-(dimethylamino)-1-methyl-ethyl]-6-methyl-7-oxo-1H-pyrrolo[2,3-c]pyridine-4-carboxamide]"
3,0.89,"CN(C)C1CCC(NC(=O)c2cn(C)c(=O)c3[nH]ccc23)CC1 (centres unmarked) [Example 21, N-[4-(dimethylamino)cyclohexyl]-6-methyl-7-oxo-1H-pyrrolo[2,3-c]pyridine-4-carboxamide]"
4,2.1,"CC(C)N1CCC(CN(C)C(=O)c2cn(C)c(=O)c3[nH]ccc23)C1 (centres unmarked) [Example 23, N-[(1-isopropylpyrrolidin-3-yl)methyl]-N,6-dimethyl-7-oxo-1H-pyrrolo[2,3-c]pyridine-4-carboxamide]"
5,3.2,"CC1CCN(CCNC(=O)c2cn(C)c(=O)c3[nH]ccc23)CC1 [Example 26, 6-methyl-N-[2-(4-methyl-1-piperidyl)ethyl]-7-oxo-1H-pyrrolo[2,3-c]pyridine-4-carboxamide]"
6,1.8,"CC1CCCCN1CCCNC(=O)c1cn(C)c(=O)c2[nH]ccc12 (centres unmarked) [Example 29, 6-methyl-N-[3-(2-methyl-1-piperidyl)propyl]-7-oxo-1H-pyrrolo[2,3-c]pyridine-4-carboxamide]"
7,0.89,"Cn1cc(C(=O)N2CCC(N3CCCCC3)CC2)c2cc[nH]c2c1=O [Example 59, 6-methyl-4-[4-(1-piperidyl)piperidine-1-carbonyl]-1H-pyrrolo[2,3-c]pyridin-7-one]"
8,10.3,"CN(C)C1CCN(C(=O)c2cn(C)c(=O)c3[nH]ccc23)C1 (centres unmarked) [Example 60, 4-[3-(dimethylamino)pyrrolidine-1-carbonyl]-6-methyl-1H-pyrrolo[2,3-c]pyridin-7-one]"
9,1,"CN1CCN(C2CCN(C(=O)c3cn(C)c(=O)c4[nH]ccc34)CC2)CC1 [Example 61, 6-methyl-4-[4-(4-methylpiperazin-1-yl)piperidine-1-carbonyl]-1H-pyrrolo[2,3-c]pyridin-7-one]"
10,1.5,"CC1CCN(C2CCN(C(=O)c3cn(C)c(=O)c4[nH]ccc34)CC2)CC1 [Example 62, 6-methyl-4-[4-(4-methyl-1-piperidyl)piperidine-1-carbonyl]-1H-pyrrolo[2,3-c]pyridin-7-one]"
11,1.4,"CC1CCN(C(=O)c2cn(C)c(=O)c3[nH]ccc23)CC1 [Example 65, 6-methyl-4-(4-methylpiperidine-1-carbonyl)-1H-pyrrolo[2,3-c]pyridin-7-one]"
12,2.4,"COC1CCN(C(=O)c2cn(C)c(=O)c3[nH]ccc23)CC1 [Example 66, 4-(4-methoxypiperidine-1-carbonyl)-6-methyl-1H-pyrrolo[2,3-c]pyridin-7-one]"
13,1.8,"CC1CCCN(C2CCN(C(=O)c3cn(C)c(=O)c4[nH]ccc34)CC2)C1 (centres unmarked) [Example 67, 6-methyl-4-[4-(3-methyl-1-piperidyl)piperidine-1-carbonyl]-1H-pyrrolo[2,3-c]pyridin-7-one]"
14,3,"Cn1cc(C(=O)N2CCC(C(C)(C)O)CC2)c2cc[nH]c2c1=O [Example 68, 4-[4-(1-hydroxy-1-methyl-ethyl)piperidine-1-carbonyl]-6-methyl-1H-pyrrolo[2,3-c]pyridin-7-one]"
15,0.45,"Cn1cc(C(=O)N2CCC(Cc3ccc(F)cc3)CC2)c2cc[nH]c2c1=O [Example 69, 4-[4-[(4-fluorophenyl)methyl]piperidine-1-carbonyl]-6-methyl-1H-pyrrolo[2,3-c]pyridin-7-one]"
16,2.2,"COCC1CCN(C(=O)c2cn(C)c(=O)c3[nH]ccc23)CC1 [Example 72, 4-[4-(methoxymethyl)piperidine-1-carbonyl]-6-methyl-1H-pyrrolo[2,3-c]pyridin-7-one]"
17,2.5,"Cn1cc(C(=O)N2CCC3(CC2)COC3)c2cc[nH]c2c1=O [Example 73, 6-methyl-4-(2-oxa-7-azaspiro[3.5]nonane-7-carbonyl)-1H-pyrrolo[2,3-c]pyridin-7-one]"
18,5.9,"CN(C)C(=O)C1CCN(C(=O)c2cn(C)c(=O)c3[nH]ccc23)CC1 [Example 74, N,N-dimethyl-1-(6-methyl-7-oxo-1H-pyrrolo[2,3-c]pyridine-4-carbonyl)piperidine-4-carboxamide]"
19,4.8,"Cn1cc(C(=O)N2CCC(CO)CC2)c2cc[nH]c2c1=O [Example 75, 4-[4-(hydroxymethyl)piperidine-1-carbonyl]-6-methyl-1H-pyrrolo[2,3-c]pyridin-7-one]"
20,2.7,"Cn1cc(C(=O)N2CCC(N3CCCC3)CC2)c2cc[nH]c2c1=O [Example 77, 6-methyl-4-(4-pyrrolidin-1-ylpiperidine-1-carbonyl)-1H-pyrrolo[2,3-c]pyridin-7-one]"
21,9.9,"CC1CN(C(=O)c2cn(C)c(=O)c3[nH]ccc23)CCC1N(C)C (centres unmarked) [Example 78, 4-[4-(dimethylamino)-3-methyl-piperidine-1-carbonyl]-6-methyl-1H-pyrrolo[2,3-c]pyridin-7-one]"
22,5.1,"CCN(CC)C1CCN(C(=O)c2cn(C)c(=O)c3[nH]ccc23)CC1 [Example 79, 4-[4-(diethylamino)piperidine-1-carbonyl]-6-methyl-1H-pyrrolo[2,3-c]pyridin-7-one]"
23,0.24,"CN(C(=O)c1cn(C)c(=O)c2[nH]ccc12)C1CCN(c2ccncn2)CC1 [Example 139, N,6-dimethyl-7-oxo-N-(1-pyrimidin-4-yl-4-piperidyl)-1H-pyrrolo[2,3-c]pyridine-4-carboxamide]"
